Source: article PMC3344907, “Inhibitory Effects and Underlying Mechanism of 7-Hydroxyflavone Phosphate Ester in HeLa Cells” (PLoS ONE, 2012)

Columns and labels:
[1] = biological target: T1, CaM-activated PDE1 (Ca2+-CaM-phosphodiesterase 1); assay: PDE-Glo luminescence assay of CaM-activated PDE; supported by fluorescence quenching of the CaM-Ca2+-PDE system; format: biochemical, Bos taurus
T1 construct: bovine brain PDE (Sigma-Aldrich P9529); with calmodulin (CaM)

[2] = biological target: T1, CaM-activated PDE1 (Ca2+-CaM-phosphodiesterase 1); assay: PDE-Glo luminescence assay of CaM-activated PDE; format: biochemical, Bos taurus

Compound `CCOP(=O)(OCC)Oc1ccc2c(=O)cc(-c3ccccc3)oc2c1` [FP, diethyl flavon-7-yl phosphate] has an IC50 [1] of 22.3 µM.
Work on `O=c1cc(-c2ccccc2)oc2cc(O)ccc12` [HF, 7-hydroxyflavone] yielded an IC50 [2] of 76.7 µM.
